Measured values taken from PubChem BioAssay (NCI).
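Growth conditions: 96-well plates. Treatment: test compound, 48 hours, 5 concentrations. Analysis: linear interpolation between bracketing concentrations; unreached endpoints set to highest concentration. GI50 = concentration required for 50% inhibition of growth. TGI: total growth inhibition.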

Key:
Test in all cases: NCI anticancer screen, dose series, 48 h
[1] = system: HS 578T breast
[2] = system: MALME-3M melanoma
[3] = system: NCI-H23 lung
[4] = system: SR leukemia
[5] = system: UACC-257 melanoma
[6] = system: SNB-19 CNS
[7] = system: SW-620 colon
[8] = system: UACC-62 melanoma
[9] = system: MDA-MB-435
[10] = system: A498 renal
[11] = system: RPMI-8226 leukemia
[12] = system: SNB-75 CNS
[13] = system: SK-MEL-28 melanoma
[14] = system: NCI-H226 lung
[15] = system: COLO 205 colon
[16] = system: NCI/ADR-RES ovarian
[17] = system: OVCAR-4 ovarian
[18] = system: T-47D breast
[19] = system: SK-MEL-5 melanoma
[20] = system: RXF 393 renal
[21] = system: NCI-H460 lung
[22] = system: M14 melanoma
[23] = system: OVCAR-8 ovarian
[24] = system: TK-10 renal
[25] = system: CCRF-CEM leukemia
[26] = system: HCT-116 colon
[27] = system: OVCAR-3 ovarian
[28] = system: DU-145 prostate
[29] = system: HCC-2998 colon
[30] = system: HT29 colon
[31] = system: SK-MEL-2 melanoma
[32] = system: SF-268 CNS
[33] = system: MOLT-4 leukemia
[34] = system: HL-60(TB) leukemia
[35] = system: PC-3 prostate
[36] = system: NCI-H522 lung
[37] = system: 786-0 renal
[38] = system: MCF7 breast
[39] = system: LOX IMVI melanoma
[40] = system: K-562 leukemia
[41] = system: SK-OV-3 ovarian
[42] = system: HCT-15 colon
[43] = system: SN12C renal
[44] = system: HOP-62 NSCLC
[45] = system: KM12 colon
[46] = system: SF-539 CNS
[47] = system: IGROV1 ovarian
[48] = system: EKVX NSCLC
[49] = system: SF-295 CNS
[50] = system: MDA-MB-231 breast
[51] = system: BT-549 breast
[52] = system: UO-31 renal
[53] = system: CAKI-1 renal
[54] = system: U251 CNS
[55] = system: A549 NSCLC
[56] = system: ACHN renal
[57] = system: OVCAR-5 ovarian

COC(=O)C1CCCN1C(=O)[C@@H]1CCCN1C(=O)[C@H](Cc1c[nH]c2ccccc12)NC(=S)Nc1cc(C(F)(F)F)cc(C(F)(F)F)c1 (some centres not stated)
GI50 [1]: 3.1 µM
TGI [1]: 11.4 µM
GI50 [2]: 3.35 µM
TGI [2]: 12.7 µM
GI50 [3]: 2.78 µM
TGI [3]: 10 µM
GI50 [4]: 1.92 µM
TGI [4]: 5.03 µM
GI50 [5]: 2.4 µM
TGI [5]: 8.17 µM
GI50 [6]: 2.7 µM
TGI [6]: 12.1 µM
GI50 [7]: 3.68 µM
TGI [7]: 12.6 µM
GI50 [8]: 1.7 µM
TGI [8]: 4.08 µM
GI50 [9]: 3.03 µM
TGI [9]: 12.4 µM
GI50 [10]: 2.15 µM
TGI [10]: 6.65 µM
GI50 [11]: 2.93 µM
TGI [11]: 8 µM
GI50 [12]: 2.48 µM
TGI [12]: 8.92 µM
GI50 [13]: 3.54 µM
TGI [13]: 10.7 µM
GI50 [14]: 2.26 µM
TGI [14]: 8.01 µM
GI50 [15]: 1.72 µM
TGI [15]: 3.21 µM
GI50 [16]: 3.85 µM
TGI [16]: 22.1 µM
GI50 [17]: 3.18 µM
TGI [17]: 11.2 µM
GI50 [18]: 1.98 µM
TGI [18]: 7.2 µM
GI50 [19]: 2.63 µM
TGI [19]: 7.61 µM
GI50 [20]: 1.78 µM
TGI [20]: 4.4 µM
GI50 [21]: 1.94 µM
TGI [21]: 3.79 µM
GI50 [22]: 2.19 µM
TGI [22]: 5.23 µM
GI50 [23]: 1.92 µM
TGI [23]: 4.2 µM
GI50 [24]: 2.11 µM
TGI [24]: 5 µM
GI50 [25]: 2.75 µM
TGI [25]: 8.55 µM
GI50 [26]: 1.72 µM
TGI [26]: 3.34 µM
GI50 [27]: 2.03 µM
TGI [27]: 3.85 µM
GI50 [28]: 2.52 µM
TGI [28]: 6.47 µM
GI50 [29]: 1.96 µM
TGI [29]: 4.5 µM
GI50 [30]: 1.89 µM
TGI [30]: 3.44 µM
GI50 [31]: 2.24 µM
TGI [31]: 4.25 µM
GI50 [32]: 3.46 µM
TGI [32]: 13.6 µM
GI50 [33]: 2.04 µM
TGI [33]: 8.62 µM
GI50 [34]: 2.35 µM
TGI [34]: 5.95 µM
GI50 [35]: 1.91 µM
TGI [35]: 5.32 µM
GI50 [36]: 2.15 µM
TGI [36]: 4.99 µM
GI50 [37]: 2.52 µM
TGI [37]: 6.86 µM
GI50 [38]: 2.19 µM
TGI [38]: 6 µM
GI50 [39]: 1.91 µM
TGI [39]: 4.28 µM
GI50 [40]: 2.92 µM
TGI [40]: 13.3 µM
GI50 [41]: 2.95 µM
TGI [41]: 11.4 µM
GI50 [42]: 3.41 µM
TGI [42]: 12.8 µM
GI50 [43]: 2.82 µM
TGI [43]: 10.5 µM
GI50 [44]: 2.17 µM
TGI [44]: 6.5 µM
GI50 [45]: 1.92 µM
TGI [45]: 4.03 µM
GI50 [46]: 2.43 µM
TGI [46]: 5.85 µM
GI50 [47]: 3.34 µM
TGI [47]: 10.9 µM
GI50 [48]: 1.91 µM
TGI [48]: 7.83 µM
GI50 [49]: 1.77 µM
TGI [49]: 4.08 µM
GI50 [50]: 1.62 µM
TGI [50]: 3.4 µM
GI50 [51]: 2.88 µM
TGI [51]: 8.03 µM
GI50 [52]: 3.63 µM
TGI [52]: 14.5 µM
GI50 [53]: 2.73 µM
TGI [53]: 11.1 µM
GI50 [54]: 1.67 µM
TGI [54]: 3.81 µM
GI50 [55]: 1.98 µM
TGI [55]: 6.92 µM

CN(Cc1cccc2ccccc12)Cc1cccc2ccccc12
TGI [1]: > 100 µM
TGI [2]: 63.4 µM
TGI [3]: > 100 µM
TGI [4]: 90.8 µM
TGI [5]: > 100 µM
TGI [6]: > 100 µM
TGI [7]: 57.9 µM
TGI [8]: > 100 µM
TGI [9]: > 100 µM
TGI [10]: 80.1 µM
TGI [11]: 50.1 µM
TGI [12]: > 100 µM
TGI [13]: > 100 µM
TGI [14]: 86.4 µM
TGI [15]: 35.2 µM
TGI [16]: > 100 µM
TGI [17]: > 100 µM
TGI [18]: 72.2 µM
TGI [19]: 33.6 µM
TGI [56]: > 100 µM
TGI [20]: > 100 µM
TGI [21]: > 100 µM
TGI [22]: 74.3 µM
TGI [23]: > 100 µM
TGI [24]: > 100 µM
TGI [25]: 34 µM
TGI [26]: 55.8 µM
TGI [27]: > 100 µM
TGI [28]: > 100 µM
TGI [29]: 57.9 µM
TGI [30]: > 100 µM
TGI [31]: 31 µM
TGI [32]: > 100 µM
TGI [33]: 35 µM
TGI [34]: 33.4 µM
TGI [35]: 57.7 µM
TGI [36]: 45.4 µM
TGI [37]: > 100 µM
TGI [38]: 45 µM
TGI [39]: > 100 µM
TGI [40]: > 100 µM
TGI [41]: > 100 µM
TGI [42]: > 100 µM
TGI [43]: > 100 µM
TGI [44]: > 100 µM
TGI [45]: > 100 µM
TGI [46]: 59.6 µM
TGI [57]: > 100 µM
TGI [47]: > 100 µM
TGI [48]: > 100 µM
TGI [49]: > 100 µM
TGI [50]: 64.1 µM
TGI [51]: > 100 µM
TGI [52]: > 100 µM
TGI [53]: > 100 µM
TGI [54]: 49.6 µM
TGI [55]: > 100 µM
